# Results as given in patent US20250199015A1, “CYCLIN-DEPENDENT KINASE 2 INHIBITORS FOR MEDICAL TREATMENT” (INCYCLIX BIO, LLC, priority 2022, published 2025).
# How the values were obtained:
# [1] = tested on: FUOV-1 cells; assay: CellTiter-Glo cell proliferation assay; format: cell-based; details: Homo sapiens, 144 h; 6 days; read-out: IC50 in FUOV1 cells
# Description: The Kuramochi human ovarian carcinoma cell line was grown in RPMI-1640/1× Glutamax/10% fetal bovine serum and the FUOV-1 human ovarian carcinoma cell line was grown in DMEM/F12/1× Glutamax/10% fetal bovine serum and both were plated at 1,000 cells/well in Corning 96 well white wall/clear bottom tissue culture treated plates. […] Plates were removed from incubator at each specified timepoint and treated with CellTiter-Glo (Promega, Inc) following manufacturer specifications. Plates were then read on CLARIOstar luminometer with 1 sec/well integration. Results were converted to Microsoft Excel and transferred to GraphPad Prism for Analysis (FIG. 16A-B).
# [2] = tested on: H526 cells; assay: CellTiter Glo cell proliferation assay (single agent and chemotherapy combination); format: cell-based, human; details: Homo sapiens, NCI-H526, 144 h; six days
# Description: Plates returned to incubator for six additional days. On day six post dosing, plates were removed and treated with CellTiter Glo reagent following manufacturer's specifications. Plates incubated 45 minutes at room temperature and run on a Biotek luminometer with 1 sec/well detection. Results were converted to Microsoft Excel and transferred to GraphPad Prism for analysis.
# Cells were plated at 250 cells per well in white wall/clear bottom plates and incubated overnight. […] Plates returned to the incubator for six additional days. On day six post dosing, plates were removed and treated with CellTiter Glo reagent following manufacturer's specifications. Plates incubated 45 minutes at room temperature and run on a Biotek luminometer with 1 sec/well detection. Results were converted to Microsoft Excel and transferred to GraphPad Prism for analysis.
# (§1) Dose curves ranged from 300 pM to 10 μM in triplicate and treatments lasted for 6 days. Plates were removed from incubator at each specified timepoint and treated with CellTiter-Glo (Promega, Inc) following manufacturer specifications. Plates were then read on CLARIOstar luminometer with 1 sec/well integration.
# as §1, with “integration. Results were converted to Microsoft Excel and transferred to GraphPad Prism for Analysis.” for “integration.”
# [3] = tested on: caspase 3/7 in H526 cells; assay: CaspaseGlo-3/7 activation; format: cell-based, human; details: for IC50: Homo sapiens
# Description: (§2) Plates were removed from incubator and treated with CaspaseGlo-3/7 (Promega, Inc) following manufacturer specifications. Plates were then read on a Biotech luminometer with 1 sec/well integration. Results were converted to Microsoft Excel and transferred to GraphPad Prism for Analysis (FIG. 22D).
# as §2, with “from the” for “from”, “incubator at each specified timepoint” for “incubator”, “on” for “on a”, “27A-C).” for “22D).”
# [4] = tested on: OVCAR-3 cells; assay: CellTiter Glo cell proliferation assay; format: cell-based, human; details: Homo sapiens, OVCAR-3, 144 h; six days
# Description: Plates were returned to the incubator for six additional days. On day six post dosing, plates were removed and treated with CellTiter Glo reagent following manufacturer's specifications. Plates were incubated 45 minutes at room temperature and run on Biotek luminometer with 1 sec/well detection. Results were converted to Microsoft Excel and transferred to Graphpad Prism for analysis. […] These cell types are distinguished by either gained of cyclin E1 expression or activation (Kuramochi) or intrinsic amplification of cyclin E1 (OVCAR-3, COV318).
# In a similar manner, OVCAR-3 cells were grown in RPMI-1640, 1× Glutamax, 10% FBS and 1×ITS at 37° C., 5% CO2. Cells were plated at 500 cells per well in white wall/clear bottom plates and incubated overnight. […] Plates returned to incubator for six additional days. On day six post dosing, plates were removed and treated with CellTiter Glo reagent following manufacturer's specifications. Plates were incubated 45 minutes at room temperature and run on Biotek luminometer with 1 sec/well detection. Results were converted to Microsoft Excel and transferred to GraphPad Prism for analysis.
# [5] = tested on: OVCAR-3 cells; assay: Cell cycle by EdU flow cytometry (dose, time, washout, tracing); format: cell-based, human; details: 600 nM
# Description: Cells were plated at 100,000 cells/well in Corning 6 cm tissue culture treated plates. […] Cells were collected and fixed in 1% paraformaldehyde. Cells were incubated with Alexa488 azide dye as described by Thermo Scientific. Cells were then incubated with Fxcycle-violet and RNase. Cells were analyzed on a BD Celesta and data compiled using FloJo and GraphPad.
# The OVCAR3 human ovarian carcinoma cell line was grown in RPMI-1640/1× Glutamax/1× Insulin/10% fetal bovine serum and was plated at 300,000 cells/well in Corning 6 cm tissue culture treated plates. […] Cells were treated for the indicated amount of time (24 hours or 48 hours), with 10 μM EdU added for the last hour of treatment. Cells were collected and fixed in 1% paraformaldehyde. Cells were incubated with Alexa 488 (A488) azide dye as described by Thermo Scientific. Cells were then incubated with FarRed dye and RNase. Cells were analyzed on a BD Celesta and data compiled using FloJo and GraphPad Prism (FIG. 13A-B).
# The OVCAR3 human ovarian carcinoma cell line was grown in RPMI-1640/1× Glutamax/1× Insulin/10% fetal bovine serum and was plated at 300,000 cells/well in Corning 6 cm tissue culture treated plates. […] At 24 hours, the remaining plates were rinsed with media before un-treated media was added back. Cells were collected at the indicated times, with 10 μM EdU added for the last hour (FIG. 14A). Cells were collected and fixed in 1% paraformaldehyde. Cells were incubated with Pacific blue azide dye as described by Thermo Scientific. Cells were then incubated with FarRed dye and RNase. Cells were analyzed on a BD Celesta and data compiled using FloJo and GraphPad. […] By 18 hours, OVCAR-3 cells were in G2 or reentering G1. Cells appeared to remain somewhat synchronized over 48 hours.
# The OVCAR3 human ovarian carcinoma cell line was grown in RPMI-1640/1× Glutamax/1× Insulin/10% fetal bovine serum and was plated at 300,000 cells/well in Corning 6 cm tissue culture treated plates. […] Cells were divided into two sets. The first set was treated for the indicated amount of time, with 10 μM EdU added for the last hour of treatment before being collected. The second set of cells were treated for the indicated amount of time and had EdU added for one hour before the timepoint. Then the media was aspirated, the cells washed, and re-treated with treatment media. The second set of cells was collected at 48 hours, allowing for tracing of the EdU positive cells. Cells were collected and fixed in 1% paraformaldehyde. Cells were incubated with Alexa 488 (A488) azide dye as described by Thermo Scientific. Cells were then incubated with FarRed dye and RNase. Cells were analyzed on a BD Celesta and data compiled using FloJo and GraphPad. […] Several “snap shots” of cells at various timepoints, followed by where the cells from S phase ended up at the end of 48 hours of treatment, were collected. […] It appears that the cells in S phase at after 6 hours of treatment are arresting in G1 (FIG. 15B). At 24 hours of treatment, little to no cells were in S phase so there were no cells to trace (FIG. 15C). Although the DMSO sample appears largely different at 48 hours, the distribution appears similar to the DMSO, EdU free cells at 48 hours. […] (FIG. 15D).
structure (smiles),measurement,setting,value
"COCc1cc(C(=O)Nc2cc([C@H]3CC[C@@H](OC(=O)NC(C)C)C3)[nH]n2)n(C)n1 [PF-07104091, reference compound]",IC50,[1],80 nM
same,IC50,[2],305 nM
same,caspase 3/7 activation,[3]; 24 hours,no appreciable caspase 3/7 activation
same,IC50,"[3]; NCI-H526, 48 h, 48 hours",1250 nM
same,IC50,"[3]; NCI-H526, 72 h, 72 hours",495 nM
same,IC50,[4],294 nM
same,G1 arrest over 48 h,[5],appears to hold cells in G1 over 48 hours
